Experimental data reported in PMC6831628, “Steady-state activation of the high-affinity isoform of the α4β2δ GABAA receptor” (Scientific Reports, 2019).
Several values for one entry are separate records, joined by “and”; a condition that tells them apart may be missing. Equal entries are not always repeated. Where two headings read alike, the source gives them in different places.

How the values were obtained:
[1] = target: T1, human α4β2δ GABAA receptors (Homo sapiens, UniProt P47870+P48169); assay: two-electrode voltage clamp of α4β2δ GABAA receptors expressed in Xenopus laevis oocytes (RAD model analysis); format: cell-based; settings: for EC50: Hill equation; for EC50 / Hill coefficient: mean ± S.D.; for Q (=A/D), equilibrium between active and desensitized states: steady-state currents fitted to Eq. (2), K and c constrained to peak values; for maximal peak open probability (POpen,peak): theoretical/predicted maximum from L, c and N; for calculated steady-state POpen: Eq. (4); for contribution towards stabilization of the open state: N×RT×ln(c), GABA 2 sites, propofol 4 sites
T1 construct: expressed in transfected cells; host or cells: Xenopus laevis oocytes injected with cRNA, 5:1:5 (α4:β2:δ)
Method: The human α4β2δ GABAA receptors were expressed in Xenopus laevis oocytes. Harvesting of oocytes was conducted under the Guide for the Care and Use of Laboratory Animals as adopted and promulgated by the National Institutes of Health. The animal protocol was approved by the Animal Studies Committee of Washington University in St. Louis (Approval No. 20170071).
The cDNAs of individual subunits in the pcDNA3 vector were linearized with Xba I (NEB Labs, Ipswich, MA). The cRNAs were generated using mMessage mMachine (Ambion, Austin, TX). The oocytes were injected with a total of 11 ng cRNA per oocyte in a 5:1:5 (α4:β2:δ) ratio. Following injection, the oocytes were incubated in bath solution (96 mM NaCl, 2 mM KCl, 1.8 mM CaCl2, 1 mM MgCl2, and 5 mM HEPES; pH 7.4) plus supplements (2.5 mM Na pyruvate, 100 U/ml penicillin, 100 μg/ml streptomycin, and 50 μg/ml gentamycin) at 15 °C for 3–4 days prior to conducting electrophysiological recordings.
The recordings were conducted at room temperature using standard two-electrode voltage clamp. The pipets were filled with 3 M KCl. The oocytes were clamped at −60 mV. The chamber (RC-1Z, Warner Instruments, Hamden, CT) was perfused with bath solution (see above) at 5–8 ml/min. Solutions were gravity-applied from 30-ml glass syringes with glass luer slips via Teflon tubing, and switched manually.
The current responses were amplified with an Axoclamp 900A (Molecular Devices, Sunnyvale, CA) or OC-725C amplifier (Warner Instruments, Hamden, CT), digitized with a Digidata 1320 or 1200 series digitizer (Molecular Devices), and stored using pClamp (Molecular Devices).
In such cases, the number of cell provided is given as a range of cell numbers for each concentration point. […] The level of constitutive activity was determined by exposing the cells to 100–300 μM picrotoxin.
The current traces were analyzed using Clampfit (Molecular Devices) to determine the amplitudes of peak and steady-state responses. If steady-state (defined as ΔI < 2% during the last 20 s of agonist application) was not reached by the end of the agonist application, an estimate was made by exponential fitting of the current decay. Fitting was done using pClamp, to a single exponential or sums of up to three exponentials. The constant offset is reported as the steady-state response.

[2] = system: receptors resulting from the expression of α4, β (β2 or β3), and δ subunits; settings: cited from earlier work
α1β2γ2L GABAA receptor = settings: cited from earlier work
α4β3δ receptors = settings: oocytes, cited from earlier work
[3] = target: T2, α4β2δ receptor with β2(Y205S) mutation (Homo sapiens, UniProt P47870+P48169, Y229S); assay: activation of α4β2δ receptor carrying the β2(Y205S) mutation; format: cell-based; settings: data not shown
T2 construct: expressed in transfected cells; host or cells: Xenopus laevis oocytes (inferred from the Methods on α4β2δ)

[4] = target: α1β2γ2L receptor with β2(Y205S) mutation (Homo sapiens, UniProt P14867+P47870, Y229S); assay: activation of α1β2γ2L receptor carrying the β2(Y205S) mutation; format: cell-based; settings: data not shown
[5] = peak currents fitted to Eq. (1)

T1 sequence (P48169 36-554): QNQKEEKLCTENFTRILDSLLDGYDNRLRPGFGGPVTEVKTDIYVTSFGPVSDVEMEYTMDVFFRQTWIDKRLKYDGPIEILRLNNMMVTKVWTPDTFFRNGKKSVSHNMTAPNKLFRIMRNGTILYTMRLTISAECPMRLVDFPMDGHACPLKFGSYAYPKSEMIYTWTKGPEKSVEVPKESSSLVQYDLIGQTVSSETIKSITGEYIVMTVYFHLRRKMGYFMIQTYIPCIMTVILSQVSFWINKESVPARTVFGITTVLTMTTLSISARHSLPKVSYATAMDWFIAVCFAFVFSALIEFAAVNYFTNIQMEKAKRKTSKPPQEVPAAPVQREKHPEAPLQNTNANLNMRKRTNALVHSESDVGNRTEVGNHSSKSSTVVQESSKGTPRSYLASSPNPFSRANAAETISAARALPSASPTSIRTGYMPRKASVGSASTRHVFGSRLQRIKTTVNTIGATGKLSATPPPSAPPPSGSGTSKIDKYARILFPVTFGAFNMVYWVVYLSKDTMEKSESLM
T1 sequence (P47870 25-512 limits assumed): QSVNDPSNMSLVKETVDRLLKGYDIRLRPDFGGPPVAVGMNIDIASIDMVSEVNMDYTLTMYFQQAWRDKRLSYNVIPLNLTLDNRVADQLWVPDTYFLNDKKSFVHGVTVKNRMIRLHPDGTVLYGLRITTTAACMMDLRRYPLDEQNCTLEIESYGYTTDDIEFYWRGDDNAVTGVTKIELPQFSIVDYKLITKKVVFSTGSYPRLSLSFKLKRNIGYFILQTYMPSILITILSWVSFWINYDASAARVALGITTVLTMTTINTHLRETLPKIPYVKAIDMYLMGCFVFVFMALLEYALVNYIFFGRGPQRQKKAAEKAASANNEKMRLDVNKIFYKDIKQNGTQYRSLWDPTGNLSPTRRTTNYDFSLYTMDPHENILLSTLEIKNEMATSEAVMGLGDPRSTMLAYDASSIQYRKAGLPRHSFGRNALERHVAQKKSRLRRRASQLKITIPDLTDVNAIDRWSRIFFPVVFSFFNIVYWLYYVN
T1 sequence (O14764 25-452 partner): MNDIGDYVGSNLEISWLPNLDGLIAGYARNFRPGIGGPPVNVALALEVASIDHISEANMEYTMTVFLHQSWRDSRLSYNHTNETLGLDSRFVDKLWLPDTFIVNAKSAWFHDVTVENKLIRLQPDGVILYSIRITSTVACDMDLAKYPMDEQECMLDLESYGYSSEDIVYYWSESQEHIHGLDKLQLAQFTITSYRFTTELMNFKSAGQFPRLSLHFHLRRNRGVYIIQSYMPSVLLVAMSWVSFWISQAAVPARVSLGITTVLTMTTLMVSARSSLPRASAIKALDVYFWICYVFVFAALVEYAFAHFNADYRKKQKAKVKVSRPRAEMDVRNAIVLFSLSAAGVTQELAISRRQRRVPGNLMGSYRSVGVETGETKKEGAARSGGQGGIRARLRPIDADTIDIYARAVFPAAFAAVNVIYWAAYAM
Sequence of α1β2γ2L receptor with β2(Y205S) mutation (P14867 28-456): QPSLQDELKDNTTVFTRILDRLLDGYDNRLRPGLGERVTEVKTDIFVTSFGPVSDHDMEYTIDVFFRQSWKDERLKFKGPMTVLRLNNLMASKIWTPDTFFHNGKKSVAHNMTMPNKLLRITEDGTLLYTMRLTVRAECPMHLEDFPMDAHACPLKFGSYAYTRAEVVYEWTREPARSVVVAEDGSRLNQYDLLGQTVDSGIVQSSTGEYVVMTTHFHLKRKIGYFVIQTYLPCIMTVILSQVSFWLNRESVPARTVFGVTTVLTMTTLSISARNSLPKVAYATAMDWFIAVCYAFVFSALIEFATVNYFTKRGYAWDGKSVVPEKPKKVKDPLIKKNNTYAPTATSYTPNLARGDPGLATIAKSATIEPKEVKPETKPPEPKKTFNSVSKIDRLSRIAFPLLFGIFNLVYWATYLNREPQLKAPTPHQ
Sequence of α1β2γ2L receptor with β2(Y205S) mutation (P47870 25-512 Y229S limits assumed): as the sequence (P47870 25-512 limits assumed) above, with Y205S counted along it
Sequence of α1β2γ2L receptor with β2(Y205S) mutation (P18507 40-475 partner): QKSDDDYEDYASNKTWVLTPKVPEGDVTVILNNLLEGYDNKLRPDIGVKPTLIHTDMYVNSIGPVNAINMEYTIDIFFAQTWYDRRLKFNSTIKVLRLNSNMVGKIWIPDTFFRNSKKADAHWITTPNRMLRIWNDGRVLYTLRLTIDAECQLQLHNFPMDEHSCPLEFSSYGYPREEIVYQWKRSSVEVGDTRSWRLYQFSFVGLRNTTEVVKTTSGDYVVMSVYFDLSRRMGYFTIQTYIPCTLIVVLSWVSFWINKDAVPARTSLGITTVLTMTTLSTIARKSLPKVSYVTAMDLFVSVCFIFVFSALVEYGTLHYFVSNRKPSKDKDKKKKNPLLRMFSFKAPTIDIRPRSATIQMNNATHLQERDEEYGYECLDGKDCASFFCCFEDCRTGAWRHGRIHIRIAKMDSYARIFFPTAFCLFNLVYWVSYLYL
T2 sequence (P48169 36-554): as the sequence (P48169 36-554) above
T2 sequence (P47870 25-512 Y229S limits assumed): as the sequence (P47870 25-512 limits assumed) above, with Y205S counted along it
T2 sequence (O14764 25-452 partner): as the sequence (O14764 25-452 partner) above

## CC(=O)[C@H]1CC[C@H]2[C@@H]3CC[C@H]4C[C@H](O)CC[C@]4(C)[C@H]3CC[C@]12C [3α5αP, allopregnanolone]
[1]
  Kd: 0.21 ± 0.04 µM
  Q (=A/D), equilibrium between active and desensitized states: 0.89 ± 0.33 and 0.89
  maximal peak open probability (POpen,peak): ~ 0.2
[1]; EC50, peak currents
  EC50: 0.23 ± 0.1 µM
[1]; [5]
  cX, ratio of equilibrium dissociation constant of the open receptor to KX: 0.68 ± 0.01
[1]; peak currents
  Hill coefficient: 1.17 ± 0.30
[1]; listed as allopregnanolone
  maximal peak open probability (POpen,peak): 0.2

## O=C(Nc1c(-c2cccs2)nc2ccccn12)c1ccc(Cl)cc1 [DS-2]
[2]; high-affinity isoform
  effect of DS-2: directly activated
[2]; low-affinity isoform
  effect of DS2: potentiated but not directly activated
[1]; isoform investigated in the present study
  direct activation: directly activated

## NCCCC(=O)O [GABA]
α1β2γ2L GABAA receptor
  stabilization energy from binding of two GABA molecules: 6.4 to 7.5 kcal/mol
[1]; 30 nM GABA
  calculated steady-state POpen: 0.24
[1]; 0.3 μM GABA, relative to PTX (0) and 10 μM GABA + 50 μM propofol (1)
  open probability (peak): 0.35 ± 0.09
[1]
  contribution towards stabilization of the open state: 0.94 kcal/mol
  Q (=A/D), equilibrium between active and desensitized states: 0.78 ± 0.08 and 0.78
  maximal peak open probability (POpen,peak): 0.44 and 0.42 and 0.4 and ~ 0.4
[1]; peak currents
  Hill coefficient: 0.80 ± 0.09
[1]; saturating GABA
  steady-state open probability (POpen,S.S.): ~0.3

## O=c1[nH]oc2c1CCNC2 [THIP]
α4β3δ receptors; read-out: high-affinity component of concentration-response curve
  EC50: < 0.1 µM
α4β3δ receptors; read-out: low-affinity component of concentration-response curve
  EC50: > 10 µM

## CC(C)c1cccc(C(C)C)c1O [propofol]
[1]; 1 μM propofol added to 30 nM GABA, 10 μM taurine, 30 nM 3α5αP, 0.1 μM PS
  predicted POpen,S.S. after addition of propofol: 0.28
[1]; 1 μM propofol, peak response
  peak response to 0.3 μM GABA with coapplied propofol: 151 ± 12 % of control
[1]; 1 μM propofol, steady-state response
  steady-state response to 0.3 μM GABA with propofol: 145 ± 14 % of control
[1]; EC50, peak currents
  EC50: 7.3 ± 2 µM
[1]; KX, equilibrium dissociation constant of the resting receptor, peak currents fitted to Eq. (1), best-fit ± S.E. of the fit
  Kd: 55.1 µM and > 50 µM
[1]
  contribution towards stabilization of the open state: 4.3 kcal/mol
  Q (=A/D), equilibrium between active and desensitized states: 1.29 ± 0.14 and 1.29
  maximal peak open probability (POpen,peak): 0.99 and ~ 0.99
[1]; [5]
  cX, ratio of equilibrium dissociation constant of the open receptor to KX: 0.16 ± 0.01
[1]; peak currents
  Hill coefficient: 2.17 ± 0.65

## NCCS(=O)(=O)O [taurine, 2-aminoethanesulfonic acid]
[3]
  activation by taurine: < 0.2 % of the response to GABA + propofol
[1]; 10 μM taurine
  calculated steady-state POpen: 0.21
[1]; calculated from steady-state open probability with 1 mM taurine
  Q (=A/D), calculated value: 0.52
[1]; long (190–410 s) applications of 1 mM taurine
  steady-state open probability: 0.23 ± 0.04
[1]; [5]
  cX, ratio of equilibrium dissociation constant of the open receptor to KX: 0.47 ± 0.02
[1]; peak currents fitted to Eq. (1), best-fit ± S.E. of the fit, read-out: KX, equilibrium dissociation constant of the resting receptor
  Kd: 10 ± 2.1 µM
[1]; peak currents, read-out: EC50
  EC50: 9.8 µM and 10 µM
[1]; peak currents
  Hill coefficient: 0.70 ± 0.08
[1]
  maximal peak open probability (POpen,peak): 0.44 and 0.4 and ~ 0.4
[4]
  activation by taurine: < 0.2 % of the response to GABA + propofol

## pregnenolone sulfate [PS]
α1β2γ2L GABAA receptor
  dPS: 0.11
α1β2γ2L GABAA receptor; read-out: KPS
  Kd: 1.9 µM
[1]; fit to Eq. (3), 0.3 μM GABA, 1 site
  dPS, ratio of equilibrium dissociation constant of the desensitized receptor to KPS: 0.14 ± 0.02
[1]; steady-state current elicited by 0.3 μM GABA
  high concentration asymptote: 50 ± 4 % of control
